pIC50: −log10 of the molar value.
Molecular target: T1, TGF-beta receptor type-1 (Homo sapiens, UniProt P36897)
T1 sequence (P36897 whole entry): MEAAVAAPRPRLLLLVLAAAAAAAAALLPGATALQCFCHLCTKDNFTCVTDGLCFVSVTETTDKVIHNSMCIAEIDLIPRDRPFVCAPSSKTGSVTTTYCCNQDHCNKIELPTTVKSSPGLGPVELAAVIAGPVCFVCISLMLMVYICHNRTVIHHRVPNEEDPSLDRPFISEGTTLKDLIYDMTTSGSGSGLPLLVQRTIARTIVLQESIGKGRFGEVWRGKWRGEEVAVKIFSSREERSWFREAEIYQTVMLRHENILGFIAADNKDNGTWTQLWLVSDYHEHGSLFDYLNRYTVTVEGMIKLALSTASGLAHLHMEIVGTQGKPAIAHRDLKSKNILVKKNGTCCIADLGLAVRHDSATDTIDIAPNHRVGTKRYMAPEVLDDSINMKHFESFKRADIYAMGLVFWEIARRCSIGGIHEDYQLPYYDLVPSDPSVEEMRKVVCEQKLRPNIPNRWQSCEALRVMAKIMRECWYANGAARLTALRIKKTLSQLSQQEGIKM
Experiment: In Vitro Assay
Experimental: Briefly, the kinase reaction was performed by incubating 2.6 nM of the purified, commercially available human ALK5 (recombinant TGF β1 N-term GST-tagged, 80-end), a final concentration of TGFβ1 peptide 94.5 μM (Promega, T36-58) and ultra-pure ATP (Promega V915B). The ATP concentration was set at the Km value (concentration of substrate which permits the enzyme to achieve half maximal velocity (Vmax)) of ALK5 (5 μM). All reactions/incubations were performed at 25° C. Compound and ALK5 kinase were mixed and incubated for 15 mins. Reactions were initiated by addition of ATP at a final concentration in the assay of 0.83 μM. After an incubation of 150 min, the reaction was stopped, and ADP production detected with ADP-Glo kit according to manufacturer's indications. The assay was performed in 384-well format and was validated using a selection of reference compounds that was tested in 11 point concentration-response curve.

pIC50 | Structure (SMILES)
> 9.00 | Cc1cccc(-c2nc3n(c2-c2cc4cnccc4s2)CC(C(=O)O)N3)n1 (stereo not drawn) [US20250270215, Example 4]
> 9.00 | Fc1ccc(Cl)cc1-c1nc2n(c1-c1ccc3ncnn3c1)CCN2 [US20250270215, Example 2]
> 9.00 | Fc1ccc(Cl)cc1-c1nc2n(c1-c1cc3cnccc3s1)CCN2 [US20250270215, Example 14]
> 9.00 | Clc1cccc(-c2nc3n(c2-c2ccc4ncnn4c2)CCN3)n1 [US20250270215, Example 12]
> 9.00 | Cc1cccc(-c2nc3n(c2-c2ccc4nonc4c2)CCN3)n1 [US20250270215, Example 18]
> 9.00 | Clc1cccc(-c2nc3n(c2-c2cc4cnccc4s2)CCN3)n1 [US20250270215, Example 13]
> 9.00 | Cc1csc(-c2nc3n(c2-c2ccc4ncnn4c2)CCN3)n1 [US20250270215, Example 3]
> 9.00 | Cc1cccc(-c2nc3n(c2-c2ccc4nsnc4c2)CCN3)n1 [US20250270215, Example 17]

Reference: BindingDB's records for patent US20250270215 (Chiesi Farmaceutici, 2025)
